From paper PMC9348551, “An amelogenin-based peptide hydrogel promoted the odontogenic differentiation of human dental pulp cells” (Regenerative Biomaterials, 2022)
Square brackets hold non-standard residues; d marks the D form. Ends that are not written are not given here. Peptide text beside a SMILES is read from it. * marks the point of attachment. Acetyl(2-naphthyl) = O=C(Cc1ccc2ccccc2c1)*

What was measured:
[1] = system: MAPK-ERK1/2 pathways in HDPCs; assay: Western blot of phospho-ERK1/2 in HDPCs; format: cell-based, human; settings: 10 µM inhibitor pretreatment 1 h then D-gel 1 h, P < 0.05, in words
Procedure: The HDPCs (2 × 10^5) were treated under different conditions for different time points. The EMPs (1 µM) were also added to the HDPCs as an extra control group. Then the cells were harvested and lysed in 200 µL lysis buffer (Beyotime, Shanghai, China) and centrifuged (12 000 rpm for 10 min, at 4°C). The protein concentration was evaluated with a BCA kit (Solarbio, Beijing, China). The protein was mixed with 5× loading buffer and heated at 95°C for 5 min, separated by precast PAGE gel (Beyotime, Shanghai, China) and transferred to polyvinylidene fluoride membranes. After blocked at room temperature for 15 min, then incubated with the primary antibody (DSPP, DMP-1, Smad2/3, c jun, p-c jun, c fos, p-c fos, c jun B) (Santa Cruz, California, USA), [p-ERK1/2, ERK1/2, alkaline phosphatase (ALP), p-Smad2/3, GAPDH] (Beyotime, Shanghai, China). Then, the membranes were incubated with the goat anti-rabbit IgG-HRP secondary antibody or goat anti-mouse IgG-HRP secondary antibody for 1 h, respectively. Then, an ultrasensitive chemiluminescence kit (Beyotime, Shanghai, China) was used to detect the protein bands. A chemiluminescence imager (Bio-Rad, California, USA) was used to scan the protein bands. The Image Lab software was used to analyze the relative protein expression levels. […]

[2] = system: human dental pulp cells (HDPCs); assay: Western blot of DSPP, DMP-1 and ALP in HDPCs; format: cell-based; settings: D-gel and U0126 for 7 and 14 days, P < 0.05, in words
Procedure: The healthy premolars and third molars extracted for orthodontic or other reasons were collected from patients (14–22 years old) visited Tianjin Stomatological Hospital. This study had been approved by the Ethics Committee of Tianjin Stomatological Hospital (Approval number: 2018012). The informed consent was obtained from each patient. The dental pulp tissue was dissected within 4 h after tooth extraction, minced into 1 mm^3 pieces with sterile scissors and transferred to a cell culture flask containing alpha-modified Eagle’s medium (α-MEM, Gibco, California, USA) supplemented with 10% fetal bovine serum (FBS, Gibco, New York, NY, USA), 100 U/ml penicillin and 100 μg/ml streptomycin (PS, Sigma, California, USA). The cells were cultured in a 5% CO2 incubator at 37°C. The HDPCs at 3–4 passage were used in this study.
The HDPCs (2 × 10^5) were treated under different conditions for different time points. The EMPs (1 µM) were also added to the HDPCs as an extra control group. Then the cells were harvested and lysed in 200 µL lysis buffer (Beyotime, Shanghai, China) and centrifuged (12 000 rpm for 10 min, at 4°C). The protein concentration was evaluated with a BCA kit (Solarbio, Beijing, China). The protein was mixed with 5× loading buffer and heated at 95°C for 5 min, separated by precast PAGE gel (Beyotime, Shanghai, China) and transferred to polyvinylidene fluoride membranes. […]

[3] = system: human dental pulp cells (HDPCs); format: cell-based
Procedure: The HDPCs (1 × 10^5 cells/well) in the six well plates were treated with basal medium, AMG-P8, L-gel, D-gel, EMPs for 21 days. After fixed in the 4% paraformaldehyde for 15 min, the mineralized nodules were stained with 1% Alizarin Red (Solarbio, Beijing, China) for 10 min and washed in double-distilled water to eliminate floating colors. Images were captured with a Ti-S microscope (Nikon, Japan). For quantitative analysis of calcified nodules, 10% cetylpyridinium chloride (CPC; Sigma, USA) was used to dissolve Alizarin red. One milliliter of 10% CPC per well was added and shook for 30 min. The absorbance value was measured at 560 nm using a multifunctional microplate reader (Tecan Ltd., Männedorf, Switzerland).

[4] = Proteinase K stability (compound remaining); format: in vitro ADME; settings: Tritirachium album (source organism of proteinase K); initial concentration 1.0 mM, 0.1 mg/ml proteinase K, 24 h; read-out: compound remaining after 24 h
Procedure: (§1) Both Nap-GFFY-G-KWYQNMIR (Comp. 1) and Nap-G^DF^DF^DY-G-KWYQNMIR (Comp. 2) could form hydrogels by heating and cooling, namely L-gel and D-gel (Fig. 1A–C). The ultrastructures of the L-gel and D-gel were both nanofibers (Fig. 1D and E). The mechanical properties of the L-gel and D-gel remained relatively constant (Fig. 1F and G). […] The CAC values of the AMG-P8, L-gel and D-gel were 354.91, 84.25 and 86.62 μM, respectively (Fig. 1I and J). […] That was the result of an initial concentration of 1.0 mM AMG-P8 incubated with 0.1 mg/ml of proteinase K for 24 h, whereas the L-gel and D-gel still retained 62.21% and 78.06% of the compound, respectively, after 24 h (Fig. 1K).
(§2) Figure 1. Chemical structures of (A) AMG-P8 (KWYQNMIR); (B) Comp.1 (Nap-GFFYGKWYQNMIR) and (C) Comp.2 (Nap-G^DF^DF^DYGKWYQNMIR). TEM and optical images of (D) L-gel and (E) D-gel. Dynamic frequency and strain sweep measurements of L-gel and D-gel (F, G). (H) Circular dichroism spectra of L-gel and D-gel. Determination of CAC values of L-gel (I) and D-gel (J). (K) Compound remaining of the AMG-P8, L-gel and D-gel for an initial concentration of 1.0 mM incubated with 0.1 mg/ml of proteinase K for 24 h. TEXT PRINTED IN THE PICTURE: (I) L- gel: CAC=84.25 μM | (J) D- gel: CAC=86.62 μM DOUBTS OF THE COPYIST ABOUT THIS PICTURE: L- gel, CAC: small print, 84.25 could be 84.26 or 64.25 / D- gel, CAC: small print, 86.62 could be 88.62 or 86.82

[5] = Solubility of the peptide; format: physicochemical; settings: in words
proteinase K = proteinase K (Parengyodontium album, UniProt P06873); assay: Proteinase K stability (compound remaining); format: in vitro ADME; settings: initial concentration 1.0 mM, 0.1 mg/ml proteinase K
Procedure: as §1, §2

Chain of proteinase K (P06873 106-384, species assumed): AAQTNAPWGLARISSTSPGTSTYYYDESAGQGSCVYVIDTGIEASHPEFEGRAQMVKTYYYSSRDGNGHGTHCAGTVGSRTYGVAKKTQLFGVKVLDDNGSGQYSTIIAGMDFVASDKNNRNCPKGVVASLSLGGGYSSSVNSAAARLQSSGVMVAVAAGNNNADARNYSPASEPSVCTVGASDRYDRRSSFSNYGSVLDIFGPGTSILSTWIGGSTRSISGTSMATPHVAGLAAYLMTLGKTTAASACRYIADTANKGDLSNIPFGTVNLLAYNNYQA

In the case of `N#CC(=C(/N)Sc1ccccc1N)/C(C#N)=C(/N)Sc1ccccc1N` [U0126], the “effect on D-gel-induced phospho-ERK1/2 upregulation” value [1] is reported as “specifically blocked” and the “effect on D-gel-induced expression of DSPP and ALP” value [2] is reported as “suppressed”.

In the case of `CC[C@H](C)[C@H](NC(=O)[C@H](CCSC)NC(=O)[C@H](CC(N)=O)NC(=O)[C@H](CCC(N)=O)NC(=O)[C@H](Cc1ccc(O)cc1)NC(=O)[C@H](Cc1c[nH]c2ccccc12)NC(=O)[C@H](CCCCN)NC(=O)CNC(=O)[C@@H](Cc1ccc(O)cc1)NC(=O)[C@@H](Cc1ccccc1)NC(=O)[C@@H](Cc1ccccc1)NC(=O)CNC(=O)Cc1ccc2ccccc2c1)C(=O)N[C@@H](CCCNC(=N)N)C(=O)O` [D-gel] ({Acetyl(2-naphthyl)}-G[dF][dF][dY]GKWYQNMIR-OH), the “Alizarin red OD value as percent of the EMPs group” value [3] is reported as “about 80%” and the remaining at 24 h, 1 mM [4] is reported as 78.1%.

In the case of `CC[C@H](C)[C@H](NC(=O)[C@H](CCSC)NC(=O)[C@H](CC(N)=O)NC(=O)[C@H](CCC(N)=O)NC(=O)[C@H](Cc1ccc(O)cc1)NC(=O)[C@H](Cc1c[nH]c2ccccc12)NC(=O)[C@H](CCCCN)NC(=O)CNC(=O)[C@H](Cc1ccc(O)cc1)NC(=O)[C@H](Cc1ccccc1)NC(=O)[C@H](Cc1ccccc1)NC(=O)CNC(=O)Cc1ccc2ccccc2c1)C(=O)N[C@@H](CCCNC(=N)N)C(=O)O` [L-gel] ({Acetyl(2-naphthyl)}-GFFYGKWYQNMIR-OH), the remaining at 24 h, 1 mM [4] is reported as 62.2%.

With KWYQNMIR [AMG-P8] the solubility [5] was “good solubility” and the “time within which the peptide was hydrolyzed” value (proteinase K) was at most 30 min.
